# Patent US20080207538A1, “Enhanced Production of Functional Proteins From Defective Genes” (priority 2004, published 2008)
# Columns and labels:
# [1] = tested on: atm promoter; assay: cell-based screen for atm promoter enhancing agents (atm/pA3LUC dual luciferase, 293T cells); design: species or system human; settings: transiently transfected 293T cells; firefly/renilla luciferase
# Excerpt: Plasmid construction. The wild type human fibroblast cell line GM02037 (Coriell Cell Repositories, NJ) was used as the DNA template for atm promoter amplification. In brief, the Qiagen Blood & Cell Culture DNA Mini kit was used to purify genomic DNA. ATM gene promoter primers, which were used to amplify the desired fragment DNA, were designed based on the sequence in Genebank. The forward primer sequence employed was […] (SEQ ID NO:1) and the reverse primer was GCCACGGGAGGAGGCGAG (SEQ ID NO:2). PCR was carried out using the Roche Expand High Fidelity PCR system. […]
# Transfections were performed using GeneJammer reagent (Stratagene) based on the protocol from the manufacturer. […] The cells were subsequently lysed and promoter activity/nonsense suppression efficiency then assessed via the dual luciferase assay.
# Dual luciferase assay. […] Luminescence was determined with a Molecular Devices Lmax 96 well plate luminometer. Light emission was measured after each of the 100 μL luminescence substrates and/or stop solutions were injected. ATM promoter activity was calculated by the ratio of relative light units of flash (firefly) to glow (renilla) luminescence in each well, which was compared with control wells (cultured only in medium with plasmid but no drug treatment) in each plate. […]
# [2] = tested on: atm message; assay: atm mRNA quantitation by real time PCR (RT-PCR) after drug treatment; format: cell-based, human; settings: for Fold-increase (atm message levels): relative to untreated cell line
# Method: Cell culture and transfection. Human Kidney HEK293T cell was a gift from Professor Philipp Scherer in the Department of Cell Biology at the Albert Einstein College of Medicine. All other cell lines were purchased from Coriell Cell Repositories, NJ. HEK293T cells were maintained in Dulbecco's Modified Eagle Medium with 1 g/L D-glucose and 10% fetal bovine serum. The Human AT fibroblast cell line GM05823 was cultured in MEM medium with 1 g/L D-glucose and 15% fetal bovine serum. The Human lympoblastoid cell lines GM 13810 and GM13860 were cultured in RPMI 1640 medium with 10% heat inactivated fetal bovine serum and 1 g/L of D-glucose. All cell lines were incubated at 37° C. in a humidified 5% CO2 atmosphere.
# mRNA Quantitation. Single-stranded cDNAs were synthesized by reverse transcription, using a First Strand cDNA Synthesis kit (Invitrogen), and then used as a template in polymerase chain reactions. ATM mRNA was primarily quantified using real time polymerase chain reaction (PCR). In brief, cells were treated with the desired drugs or combinations thereof under conditions identical to those described above for the dual luciferase assay. Cells were lysed and RNA extracted with the TRIzol reagent (Invitrogen). Approximately 1 μg of total RNA in each sample was subjected to CDNA synthesis using the First Strand cDNA Synthesis kit (Invitrogen). In the real time PCR reaction, the FAM labeled MGB probe, CCAGCTATTTGGTTTGAG (SEQ ID NO:3), was designed by the Primer Express software from Applied Biosystems (AB) and synthesized by AB. The human β-actin MGB probes, VIC or FAM fluorescently labeled, were purchased from AB. All other reaction reagents were purchased from AB. PCR reactions were performed using the ABI PRISM 7000 Sequence Detection System in triplicate. Some samples were also tested on the ABI 7700 Sequence Detection System for verification and essentially identical results were obtained with both real time PCR instruments. All collected data were compared with a […] control. In addition to real time PCR, the branched chain DNA (bDNA) RNA quantitation method was employed as well. Briefly, the QuantiGene kit as well as the customer designed atm probe sets were purchased from Genospectra. The latter probes target the same region on the atm message RNA region as the real time PCR probes. The cells were treated as described above for the dual luciferase assay. Cell lysates were transferred into a capture plate and atm mRNA allowed to hybridize with the probe set at 53° C. overnight. After 16-20 hours, the signal was amplified and subsequently read using a Molecular Devices Lmax luminometer. The internal human β-actin probe sets were purchased from Genospectra. All experiments were performed in triplicate.
# The effect of ofloxacin on native atm message levels was subsequently examined in 293T cells as well as in lymphoblastoid and primary fibroblast cell lines derived from A-T patients (Table 1). Message levels are enhanced 2.4±0.1 fold in 293T cells treated with ofloxicin for 24 hours. By contrast, an up to nearly 6-fold increase is observed in ATM-deficient (A-T) cell lines. The latter results offer the intriguing possibility that atm message levels are elevated more dramatically in an ATM-deficient environment.
# [3] = tested on: stop codon inserted into the reading frame of firefly luciferase; assay: stop codon read-through, dual luciferase assay in transfected 293T cells; format: cell-based, human; settings: relative to untreated transfected cells, 24 hour incubation
# Method: Plasmid construction. The wild type human fibroblast cell line GM02037 (Coriell Cell Repositories, NJ) was used as the DNA template for atm promoter amplification. In brief, the Qiagen Blood & Cell Culture DNA Mini kit was used to purify genomic DNA. ATM gene promoter primers, which were used to amplify the desired fragment DNA, were designed based on the sequence in Genebank. The forward primer sequence employed was […] (SEQ ID NO:1) and the reverse primer was […] (SEQ ID NO:2). PCR was carried out using the Roche Expand High Fidelity PCR system. The amplified atm promoter region was then cloned into the TOPO2.1 PCR vector (Invitrogen) for sequencing verification and subsequently subcloned into the promoterless plasmid PA3Luc. Firefly luciferase cDNA was mutated (QuikChange Site-Directed Mutagenesis Kit) in the desired region to furnish the three stop codons, as shown as FIG. 1(C). The CMV driven Renilla luciferase plasmid was purchased from Promega as the internal control for the dual luciferase assay.
# Transfections were performed using GeneJammer reagent (Stratagene) based on the protocol from the manufacturer. In brief, approximately […] HEK293T cells were seeded into white 96 well plates (Corning) and grown for less than 24 hours. Cells were transfected with 0.6 μL of GeneJammer and 0.1 μg plasmids. In the dual luciferase assay, the plasmid ratio of ATM promoter-driven firefly luciferase to CMV promoter-driven Renilla luciferase was 30:1. In the dual luciferase experiments that utilized the stop codon-containing firefly luciferase genes, the ratio was 40:1. On the second day after transfection, the medium in each well was changed, and the promoter and/or nonsense-suppressing agents added to the wells for a 24 hour incubation period. The cells were subsequently lysed and promoter activity/nonsense suppression efficiency then assessed via the dual luciferase assay.
# Dual luciferase assay. The dual luciferase kit was purchased from Promega and the protocol employed was conducted according to the directions supplied by the manufacturer. In brief, cells were washed with PBS and lysates were prepared using passive lysis buffer. Luminescence was determined with a Molecular Devices Lmax 96 well plate luminometer. Light emission was measured after each of the 100 μL luminescence substrates and/or stop solutions were injected. ATM promoter activity was calculated by the ratio of relative light units of flash (firefly) to glow (renilla) luminescence in each well, which was compared with control wells (cultured only in medium with plasmid but no drug treatment) in each plate. In the case of the stop codon suppression studies, controls also included cells containing the plasmids without the inserted stop codon, which were treated with nonsense suppressing and/or promoter activating agents. All individual treatments in a given experiment were performed in triplicate and all experiments repeated 3-10 times.
# An evaluation was made of the ability of aminoglycosides, in combination with promoter activating agents, to augment read-through of a stop codon inserted into the reading frame of firefly luciferase (FIG. 1C).
# [4] = tested on: nonsense mutations; settings: reported, Keeling and Bedwell, 2002; cited from earlier work
# [5] = tested on: animal models of cystic fibrosis and Duchenne muscular dystrophy; settings: reported; cited from earlier work
# [6] = tested on: patients with sickle-cell anemia; settings: Perrine et al., 1993; cited from earlier work
molecule,measurement,setting,value
"Nc1nc2nc[nH]c2c(=S)[nH]1 [Thioguanine, thioguanine]",activation of the atm promoter,[1],induce atm promoter activity
"CC1COc2c(N3CCN(C)CC3)c(F)cc3c(=O)c(C(=O)O)cn1c23 (stereo not shown) [Ofloxacin, ofloxacin]",Message levels enhanced (atm),"[2]; 293T cells, treated for 24 hours",2.4±0.1 fold
same,increase in atm message levels,"[2]; ATM-deficient (A-T) cell lines, summary of Table 1",≤ 6 fold
same,Fold-increase (atm message levels),"[2]; GM05823 (A-T) fibroblast cell line, 2 hours after ofloxacin",2.2 ± 0.1 fold
same,Fold-increase (atm message levels),"[2]; GM05823 (A-T) fibroblast cell line, 6 hours after ofloxacin",3.0 ± 0.2 fold
same,Fold-increase (atm message levels),"[2]; GM05823 (A-T) fibroblast cell line, 24 hours after ofloxacin",5.8 ± 0.4 fold
same,Fold-increase (atm message levels),"[2]; GM13810 (A-T) lymphoblastoid cell line, 2 hours after ofloxacin",1.2 ± 0.2 fold
same,Fold-increase (atm message levels),"[2]; GM13810 (A-T) lymphoblastoid cell line, 6 hours after ofloxacin",2.3 ± 0.3 fold
same,Fold-increase (atm message levels),"[2]; GM13810 (A-T) lymphoblastoid cell line, 24 hours after ofloxacin",5.4 ± 0.7 fold
same,Fold-increase (atm message levels),"[2]; GM13860 (A-T) lymphoblastoid cell line, 2 hours after ofloxacin",3.8 ± 0.9 fold
same,Fold-increase (atm message levels),"[2]; GM13860 (A-T) lymphoblastoid cell line, 6 hours after ofloxacin",2.3 ± 0.3 fold
same,Fold-increase (atm message levels),"[2]; GM13860 (A-T) lymphoblastoid cell line, 24 hours after ofloxacin",3.3 ± 0.3 fold
"CN[C@@H]1[C@@H](O)[C@@H](O[C@@H]2[C@@H](O)[C@H](O[C@H]3O[C@H]([C@@H](C)O)[C@@H](O)[C@H](O)[C@H]3N)[C@@H](N)C[C@H]2N)OC[C@]1(C)O [Geneticin, geneticin]",Fold-increase (read-through),[3]; amber (UAG) stop codon,14.9 ± 1.9 fold
same,Fold-increase (read-through),[3]; ochre (UAA) stop codon,7.9 ± 3.0 fold
same,Fold-increase (read-through),[3]; opal (UGA) stop codon,6.5 ± 0.8 fold
gentamicin,Fold-increase (read-through),[3]; amber (UAG) stop codon,8.2 ± 1.8 fold
same,Fold-increase (read-through),[3]; ochre (UAA) stop codon,6.7 ± 1.5 fold
same,Fold-increase (read-through),[3]; opal (UGA) stop codon,8.7 ± 1.2 fold
same,effectiveness at suppressing nonsense mutations compared with tobramycin,[4],more effective
O=C(O)c1cccc(-c2noc(-c3ccccc3F)n2)c1 [PTC124],efficacy in animal models,[5],effective
NCC[C@H](O)C(=O)N[C@@H]1C[C@H](N)[C@@H](O[C@H]2O[C@H](CN)[C@@H](O)[C@H](O)[C@H]2O)[C@H](O)[C@H]1O[C@H]1O[C@H](CO)[C@@H](O)[C@H](N)[C@H]1O [amikacin],effectiveness at suppressing nonsense mutations compared with tobramycin,[4],more effective
"CCCC(=O)[O-].[Na+] [Sodium butyrate, sodium butyrate]",toxicity in patients,[6],minimal toxicity
